Structures are written as SMILES.

The values that follow come from US6589953B2, “Indole derivatives as 5-HT1B and 5-HT1D agonists” (Pierre Fabre Medicament, priority 1997, dated 2003).

Usually melting point stands for the temperature of the solid-liquid transition. Regarding `NCCc1c[nH]c2ccc(OCC(=O)N3CCN(c4ccc(-c5cccs5)cc4)CC3)cc12.O=C(O)/C=C/C(=O)O`, the melting point fell in the range of 154 to 156 °C.

`NCCc1c[nH]c2ccc(OCC(=O)N3CCN(c4ccc(-c5nc6ccccc6s5)cc4)CC3)cc12.O=C(O)/C=C/C(=O)O` gave a melting point of 156 to 160 °C.

Consider `NCCc1c[nH]c2ccc(OCC(=O)N3CCN(c4ccc(-c5nnc(-c6ccccc6)o5)cc4)CC3)cc12.O=C(O)/C=C/C(=O)O`, for which the melting point amounted to 170 °C.

Consider `Cc1ccc(-c2nnc(-c3ccc(N4CCN(C(=O)COc5ccc6[nH]cc(CCN)c6c5)CC4)cc3)o2)cc1.O=C(O)/C=C/C(=O)O`, for which the melting point is 135 °C.

`Cc1ccccc1-c1nnc(-c2ccc(N3CCN(C(=O)COc4ccc5[nH]cc(CCN)c5c4)CC3)cc2)o1.O=C(O)/C=C/C(=O)O` had a melting point of 123 °C.

`NCCc1c[nH]c2ccc(OCC(=O)N3CCN(c4ccc(C5=NCCO5)cc4)CC3)cc12.O=C(O)/C=C/C(=O)O` had a melting point of 170 °C.

Turning to `NCCc1c[nH]c2ccc(OCC(=O)N3CCN(c4ccc(-c5ccncc5)cc4)CC3)cc12.O=C(O)/C=C/C(=O)O`, the melting point is 176 °C.

In turn, `Cl.NCCc1c[nH]c2ccc(OCC(=O)N3CCN(c4ccc(-c5nn[nH]n5)cc4)CC3)cc12` had a melting point of 225 to 227 °C.

Consider `Cl.Cl.NCCc1c[nH]c2ccc(OCC(=O)N3CCN(c4ccc(-c5ncco5)cc4)CC3)cc12`, for which the melting point is 64 to 66 °C (dec.).
